Where a SMILES comes first, the peptide text is derived from it. Bridges are numbered along the chain shown (N, C = ends). [ ]: non-standard residue; d: D form. The star is where a group is joined. Threoninol(2S,3R) = C[C@@H](O)[C@H](CO)N*
Legend:
[1] = biological target: T1, 3-hydroxy-3-methylglutaryl-coenzyme A reductase (Homo sapiens, UniProt P04035); parameters: species or system Escherichia coli;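 further: enzyme inhibition assay of HMG-CoA reductase using radiolabeled [14C]HMG-CoA as substrate; in other assays of this panel Not Active means under 50% inhibition at 10 µM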
T1 sequence (P04035 whole entry): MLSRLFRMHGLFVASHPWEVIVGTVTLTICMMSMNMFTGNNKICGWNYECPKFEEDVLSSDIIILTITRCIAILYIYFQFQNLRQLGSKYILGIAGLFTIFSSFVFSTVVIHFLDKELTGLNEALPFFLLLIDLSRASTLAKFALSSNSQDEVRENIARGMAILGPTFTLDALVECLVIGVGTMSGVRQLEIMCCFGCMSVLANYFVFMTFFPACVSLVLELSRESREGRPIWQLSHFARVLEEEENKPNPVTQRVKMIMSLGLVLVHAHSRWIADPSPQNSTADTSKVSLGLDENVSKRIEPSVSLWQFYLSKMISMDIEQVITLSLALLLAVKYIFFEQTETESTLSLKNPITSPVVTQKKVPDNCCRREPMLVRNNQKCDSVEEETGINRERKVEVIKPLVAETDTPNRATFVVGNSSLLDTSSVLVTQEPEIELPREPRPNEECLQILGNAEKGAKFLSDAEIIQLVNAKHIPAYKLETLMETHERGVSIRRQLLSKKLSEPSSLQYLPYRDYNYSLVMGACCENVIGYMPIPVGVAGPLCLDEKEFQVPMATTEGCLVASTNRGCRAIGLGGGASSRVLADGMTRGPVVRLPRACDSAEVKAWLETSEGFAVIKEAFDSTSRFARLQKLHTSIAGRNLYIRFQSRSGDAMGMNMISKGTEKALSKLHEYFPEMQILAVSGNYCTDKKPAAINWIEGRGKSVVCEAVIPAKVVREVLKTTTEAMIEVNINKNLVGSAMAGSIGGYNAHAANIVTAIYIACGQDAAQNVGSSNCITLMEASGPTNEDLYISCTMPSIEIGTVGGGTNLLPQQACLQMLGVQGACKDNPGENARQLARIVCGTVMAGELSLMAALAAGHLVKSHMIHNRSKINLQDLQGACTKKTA

[2] = biological target: T2, Type-2 angiotensin II receptor (Homo sapiens, UniProt P50052); type: cell-based; conditions: cho-k1; further: in other assays of this panel Not Active means under 50% inhibition at 10 µM
T2 sequence (P50052 whole entry): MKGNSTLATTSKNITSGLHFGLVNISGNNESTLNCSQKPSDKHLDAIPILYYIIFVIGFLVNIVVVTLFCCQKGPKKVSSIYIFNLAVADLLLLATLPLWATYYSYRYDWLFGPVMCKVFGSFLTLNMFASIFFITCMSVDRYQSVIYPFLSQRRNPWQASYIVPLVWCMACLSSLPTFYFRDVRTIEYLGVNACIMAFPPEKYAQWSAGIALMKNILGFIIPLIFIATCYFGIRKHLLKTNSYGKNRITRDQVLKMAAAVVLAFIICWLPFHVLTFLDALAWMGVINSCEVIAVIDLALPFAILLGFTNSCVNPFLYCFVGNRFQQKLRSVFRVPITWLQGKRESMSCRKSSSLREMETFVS

[3] = DRUGMATRIX: Leukotriene, BLT (LTB4) radioligand binding (ligand: [3H]LTB4); type: cell membranes, Membrane; conditions: u-937; Not Active = under 50% inhibition at 10 µM
[4] = DRUGMATRIX: Atrial Natriuretic Factor (ANF) radioligand binding (ligand: [125I] ANF (rat)); type: cell membranes, Cavia porcellus, Dunkin-Hartley, Adrenal gland, Membrane; conditions: Not Active = under 50% inhibition at 10 µM
[5] = biological target: Kappa-type opioid receptor (Homo sapiens, UniProt P41145); experiment: DRUGMATRIX: Opiate kappa (OP2, KOP) radioligand binding (ligand: [3H] Diprenorphine); type: cell membranes, HEK293, Membrane; conditions: hek293; Not Active = under 50% inhibition at 10 µM
Kappa-type opioid receptor, sequence (P41145 whole entry): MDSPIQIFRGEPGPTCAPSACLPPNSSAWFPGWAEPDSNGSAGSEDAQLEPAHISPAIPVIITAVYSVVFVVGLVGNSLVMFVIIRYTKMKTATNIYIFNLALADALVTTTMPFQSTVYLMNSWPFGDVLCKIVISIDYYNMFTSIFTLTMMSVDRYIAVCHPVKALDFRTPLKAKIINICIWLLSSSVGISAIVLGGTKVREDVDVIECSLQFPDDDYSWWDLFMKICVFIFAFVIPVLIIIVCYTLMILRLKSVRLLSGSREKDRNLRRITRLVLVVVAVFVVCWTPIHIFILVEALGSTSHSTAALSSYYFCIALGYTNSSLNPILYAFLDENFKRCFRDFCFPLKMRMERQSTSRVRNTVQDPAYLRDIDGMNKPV

[6] = DRUGMATRIX: Interleukin IL-1 radioligand binding (ligand: [125I] interleukin 1beta); type: cell membranes, Membrane; conditions: nih3t3; Not Active = under 50% inhibition at 10 µM
Interstitial collagenase = biological target: T3, Interstitial collagenase (Homo sapiens, UniProt P03956); experiment: biochemical; type: tissue-based, Rheumatoid synovial fibroblasts;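 further: MMP-1 enzyme inhibition assay using a peptide substrate; in other assays of this panel Not Active means under 50% inhibition at 10 µM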
T3 sequence (P03956 whole entry): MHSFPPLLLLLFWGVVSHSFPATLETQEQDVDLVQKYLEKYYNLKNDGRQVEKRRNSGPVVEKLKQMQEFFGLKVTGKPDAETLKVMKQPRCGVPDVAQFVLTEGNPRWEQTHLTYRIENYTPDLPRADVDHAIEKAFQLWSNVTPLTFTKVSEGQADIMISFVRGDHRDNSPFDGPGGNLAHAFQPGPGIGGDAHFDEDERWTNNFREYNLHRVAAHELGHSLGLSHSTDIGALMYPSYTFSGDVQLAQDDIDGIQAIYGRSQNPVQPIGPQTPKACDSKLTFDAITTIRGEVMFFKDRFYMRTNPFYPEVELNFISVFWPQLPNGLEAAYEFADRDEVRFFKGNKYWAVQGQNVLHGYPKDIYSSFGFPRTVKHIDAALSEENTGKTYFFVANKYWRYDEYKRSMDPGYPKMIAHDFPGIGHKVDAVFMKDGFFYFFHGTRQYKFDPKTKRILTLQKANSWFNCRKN

[7] = DRUGMATRIX: Nicotinic Acetylcholine radioligand binding (ligand: [125I] Epibatidine); type: cell membranes, Membrane; conditions: imr-32; Not Active = under 50% inhibition at 10 µM

COc1ccccc1C(=O)N1CCC(Cc2ccccc2)CC1
Not Active: IC50 [1] | IC50 [2] | IC50 [3] | Ki [3] | IC50 [4] | Ki [4] | IC50 [5] | IC50 [6] | Ki [6] | IC50 (Interstitial collagenase) | IC50 [7] | Ki [7]

Cc1ccccc1C(=O)N1CCC(Cc2ccccc2)CC1
Not Active: IC50 [1] | IC50 [2] | IC50 [3] | Ki [3] | IC50 [4] | Ki [4] | IC50 [5] | IC50 [6] | Ki [6] | IC50 (Interstitial collagenase) | IC50 [7] | Ki [7]

O=C1CC[C@H](N2C(=O)c3ccccc3C2=O)C(=O)N1
Not Active: IC50 [1] | IC50 [2] | IC50 [3] | Ki [3] | IC50 [4] | Ki [4] | IC50 [5] | IC50 [6] | Ki [6] | IC50 (Interstitial collagenase) | IC50 [7] | Ki [7]

N=C(Nc1ccccc1)Nc1ccccc1
Not Active: IC50 [1] | IC50 [2] | IC50 [3] | Ki [3] | IC50 [4] | Ki [4] | IC50 [5] | IC50 [6] | Ki [6] | IC50 (Interstitial collagenase) | IC50 [7] | Ki [7]

C[C@@H](O)[C@H](CO)NC(=O)[C@@H]1CSSC[C@H](NC(=O)[C@H](N)Cc2ccccc2)C(=O)N[C@@H](Cc2ccccc2)C(=O)N[C@H](Cc2c[nH]c3ccccc23)C(=O)N[C@@H](CCCCN)C(=O)N[C@@H]([C@@H](C)O)C(=O)N1 (H-[dF]CF[dW]KTC-{Threoninol(2S,3R)}; disulfide 2-7)
Not Active: IC50 [1] | IC50 [2] | IC50 [3] | Ki [3] | IC50 [4] | Ki [4] | IC50 [5] | IC50 [6] | Ki [6] | IC50 (Interstitial collagenase) | IC50 [7] | Ki [7]

S=C=Nc1cccc2ccccc12 [1-NAPHTHYLISOTHIOCYANATE]
Not Active: IC50 [1] | IC50 [2] | IC50 [3] | Ki [3] | IC50 [4] | Ki [4] | IC50 [6] | Ki [6] | IC50 (Interstitial collagenase) | IC50 [7] | Ki [7]

C[C@](O)(CS(=O)(=O)c1ccc(F)cc1)C(=O)Nc1ccc(C#N)c(C(F)(F)F)c1 [(R)-BICALUTAMIDE]
Not Active: IC50 [1] | IC50 [2] | IC50 [3] | Ki [3] | IC50 [4] | Ki [4] | IC50 [5] | IC50 [6] | Ki [6] | IC50 (Interstitial collagenase) | IC50 [7] | Ki [7]

CCCC(=O)Nc1ccc(OCC(O)CNC(C)C)c(C(C)=O)c1 (configuration not stated) [ACEBUTOLOL]
Not Active: IC50 [1] | IC50 [2] | IC50 [3] | Ki [3] | IC50 [4] | Ki [4] | IC50 [5] | IC50 [6] | Ki [6] | IC50 (Interstitial collagenase) | IC50 [7] | Ki [7]

CC(=O)Nc1ccc(O)cc1 [ACETAMINOPHEN]
Not Active: IC50 [1] | IC50 [2] | IC50 [3] | Ki [3] | IC50 [4] | Ki [4] | IC50 [6] | Ki [6] | IC50 (Interstitial collagenase) | IC50 [7] | Ki [7]

COc1cc2c(c3oc(=O)c4c(c13)CCC4=O)[C@@H]1C=CO[C@@H]1O2 [AFLATOXIN]
Not Active: IC50 [1] | Ki [1] | IC50 [2] | Ki [2] | IC50 [3] | Ki [3] | IC50 [4] | Ki [4] | IC50 [5] | Ki [5] | IC50 [6] | Ki [6] | IC50 (Interstitial collagenase) | Ki (Interstitial collagenase) | IC50 [7] | Ki [7]

N=C(N)NC(=O)c1nc(Cl)c(N)nc1N [AMILORIDE]
Not Active: IC50 [1] | IC50 [2] | IC50 [3] | Ki [3] | IC50 [4] | Ki [4] | IC50 [5] | IC50 [6] | Ki [6] | IC50 (Interstitial collagenase) | IC50 [7] | Ki [7]

Cc1cc(=O)n(-c2ccccc2)n1C [ANTIPYRINE]
Not Active: IC50 [1] | IC50 [2] | IC50 [3] | Ki [3] | IC50 [4] | Ki [4] | IC50 [5] | IC50 [6] | Ki [6] | IC50 (Interstitial collagenase) | IC50 [7] | Ki [7]

CN1C(=O)COc2c(C(=O)NC3CN4CCC3CC4)cc(Cl)cc21 (configuration not stated) [AZASETRON]
Not Active: IC50 [1] | IC50 [2] | IC50 [3] | Ki [3] | IC50 [4] | Ki [4] | IC50 [5] | IC50 [6] | Ki [6] | IC50 (Interstitial collagenase) | IC50 [7] | Ki [7]

C[C@H]1C[C@H]2[C@@H]3CCC4=CC(=O)C=C[C@]4(C)[C@@]3(Cl)[C@@H](O)C[C@]2(C)[C@@]1(O)C(=O)CO [BECLOMETHASONE]
Not Active: IC50 [1] | IC50 [2] | IC50 [3] | Ki [3] | IC50 [4] | Ki [4] | IC50 [5] | IC50 [6] | Ki [6] | IC50 (Interstitial collagenase) | IC50 [7] | Ki [7]

C[C@@]12C(=O)OC(=O)[C@]1(C)[C@H]1CC[C@@H]2O1 [CANTHARIDIN]
Not Active: IC50 [1] | IC50 [2] | IC50 [3] | Ki [3] | IC50 [4] | Ki [4] | IC50 [6] | Ki [6] | IC50 (Interstitial collagenase) | IC50 [7] | Ki [7]

C[C@@H]1C[C@@H]([C@H](O)CC2CC(=O)NC(=O)C2)C(=O)[C@@H](C)C1 [CYCLOHEXIMIDE]
Not Active: IC50 [1] | IC50 [2] | IC50 [3] | Ki [3] | IC50 [4] | Ki [4] | IC50 [6] | Ki [6] | IC50 (Interstitial collagenase) | IC50 [7] | Ki [7]

COP(=O)(OC)OC=C(Cl)Cl [DICHLORVOS]
Not Active: IC50 [1] | IC50 [2] | IC50 [3] | Ki [3] | IC50 [4] | Ki [4] | IC50 [6] | Ki [6] | IC50 (Interstitial collagenase) | IC50 [7] | Ki [7]

CADMIUM DICHLORIDE
Not Active: IC50 [1] | Ki [1] | IC50 [2] | Ki [2] | IC50 [3] | Ki [3] | IC50 [4] | Ki [4] | IC50 [6] | Ki [6] | IC50 (Interstitial collagenase) | Ki (Interstitial collagenase) | IC50 [7] | Ki [7]

— ChEMBL document CHEMBL1909046, “DrugMatrix in vitro pharmacology data”
